pEC50: −log10 of the molar value. Like-named read-outs stand apart in the source and are kept apart here. *1 amine or outer side, *2 acyl side, *3 side chain or, on linkers, in order; H or OH if unused. Where a SMILES comes first, the peptide text is derived from it. Side-chain parts run from the residue outwards. [ ]: non-standard residue; d: D form. The star is where a group is joined. Isobutyryl(2-(3-CN-5-F-Ph)) = CC(C)(C(=O)*)c1cc(F)cc(C#N)c1; C20 diacid = O=C(O)CCCCCCCCCCCCCCCCCCC(=O)*; β2hAla(2S) = C[C@@H](CN[*:1])C(=O)[*:2]; X56 = CC(C)(C(=O)*)c1cc(F)cc(C(N)=O)c1; γGlu = O=C(O)[C@H](CCC(=O)[*:2])N[*:1]; X27 = O=C1CC(C(=O)*)(c2ccccc2)CN1; NH(3-Cl-phenyl) = Clc1cccc(N*)c1; NH(4-Cl-phenyl) = Clc1ccc(N*)cc1; AEEA = NCCOCCOCC(=O)O; Aib = CC(C)(N)C(=O)O; CO = O=C([*:1])[*:2]; GABA = NCCCC(=O)O; βAla = NCCC(=O)O
Experiments:
Type in all cases: cell-based
[1] = target: T1, GIP receptor (Homo sapiens, UniProt P48546); assay: PathHunter β-arrestin assay, GIP receptor; design: host or cells: PathHunter CHO-K1 GIPR β-Arrestin Cell Line
T1 sequence (P48546 22-466): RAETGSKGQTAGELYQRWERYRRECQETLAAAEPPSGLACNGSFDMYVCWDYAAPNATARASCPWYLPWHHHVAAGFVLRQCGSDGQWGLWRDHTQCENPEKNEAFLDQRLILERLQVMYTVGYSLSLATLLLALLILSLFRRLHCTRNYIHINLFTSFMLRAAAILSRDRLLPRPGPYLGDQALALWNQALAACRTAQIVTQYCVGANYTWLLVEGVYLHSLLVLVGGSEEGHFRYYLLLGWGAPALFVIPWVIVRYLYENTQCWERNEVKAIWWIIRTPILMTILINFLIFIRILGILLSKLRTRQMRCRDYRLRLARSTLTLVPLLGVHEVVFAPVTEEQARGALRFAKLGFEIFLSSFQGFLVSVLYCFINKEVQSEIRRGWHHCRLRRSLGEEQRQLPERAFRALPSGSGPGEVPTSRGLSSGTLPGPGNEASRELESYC

[2] = target: T2, GLP-1 receptor (Homo sapiens, UniProt P43220); assay: PathHunter β-arrestin assay, GLP-1 receptor; design: host or cells: PathHunter CHO-K1 GLP1R β-Arrestin Cell Line
[3] = target: T2, GLP-1 receptor; assay: HitHunter cAMP assay, GLP-1 receptor; conditions: for Emax: read-out: Emax GLP-1R
Procedure: CAMP accumulation was measured in Chinese hamster ovary (CHO) cells stably expressing the human GLP-1 receptor or GIP receptor using the HitHunter CAMP Assay for Small Molecules Kit (Eurofins). Briefly, cells were grown in Ham's F12 Nutrient Mix with 10% FBS and lifted with Cell dissociation buffer, Enzyme free, PBS based (ThermoFisher). Cells were pelleted and resuspended in Hank's buffered saline solution with 10 mM Hepes and 625 μM 3-isobutyl-1-methylxanthine. The antibody reagent was then added to cells at a 1:2 ratio and 5 μL of mixture was seeded in 384-well small volume white assay plates, at 10,000 cells/well. Cells were then treated with 50 nl compound in DMSO using an ECHO 550 acoustic dispenser (Labcyte) in a 20-point dose response format in triplicate for 30 min. Cells were the lysed and detection reagents added according to the manufacturer's protocol. After overnight incubation, luminescence was measured using a Perkin Elmer Envision plate reader. Raw data was normalized to the maximum signal from GLP-1 or GIP (high) and DMSO (low). Dose response curves were analyzed using GraphPad Prism 9.0.

[4] = target: T1, GIP receptor; assay: HitHunter cAMP assay, GIP receptor; conditions: for Emax: read-out: Emax GIP-1R
[5] = β-arrestin-2 recruitment, PathHunter CHO-K1 GIPR β-Arrestin Cell Line, 90 min at 37° C., normalized to GIP, read-out: GIPR β Arrestin EC50
[6] = β-arrestin-2 recruitment, PathHunter CHO-K1 GLP1R β-Arrestin Cell Line, 90 min at 37° C., normalized to GLP-1, read-out: GLP-1R β Arrestin EC50
[7] = CHO cells stably expressing human GLP-1 receptor, cAMP accumulation, 30 min, read-out: EC50 GLP-1R
[8] = CHO cells, cAMP, normalized to maximum signal from GLP-1 (high) and DMSO (low)
[9] = CHO cells stably expressing GIP receptor, cAMP accumulation, 30 min, read-out: EC50 GIP-1R
[10] = CHO cells, cAMP, normalized to maximum signal from GIP (high) and DMSO (low)

T2 sequence (P43220 24-463): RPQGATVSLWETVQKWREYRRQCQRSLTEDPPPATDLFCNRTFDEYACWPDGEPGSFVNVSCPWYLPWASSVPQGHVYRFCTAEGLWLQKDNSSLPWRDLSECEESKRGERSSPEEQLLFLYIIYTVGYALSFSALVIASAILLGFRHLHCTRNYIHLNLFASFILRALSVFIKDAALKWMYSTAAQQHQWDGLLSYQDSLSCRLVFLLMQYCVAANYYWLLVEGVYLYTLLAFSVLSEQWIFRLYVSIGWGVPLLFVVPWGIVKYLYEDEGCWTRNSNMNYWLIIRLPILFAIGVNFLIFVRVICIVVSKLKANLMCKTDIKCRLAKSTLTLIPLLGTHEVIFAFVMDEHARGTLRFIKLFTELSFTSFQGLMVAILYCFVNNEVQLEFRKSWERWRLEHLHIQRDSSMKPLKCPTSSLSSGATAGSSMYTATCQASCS

Structure (SMILES) | pEC50 [1] | pEC50 [2] | pEC50 [3] | Emax ([3]; CHO) | pEC50 [4] | Emax ([4]; CHO) | pEC50 [1, 5] | pEC50 [2, 6] | pEC50 [3, 7] | Emax [3, 8] | pEC50 [4, 9] | Emax [4, 10]
CC[C@H](C)[C@H](NC(=O)[C@H](CC(C)C)NC(=O)[C@H](Cc1c[nH]c2ccccc12)NC(=O)[C@H](CCC(N)=O)NC(=O)[C@@H](NC(=O)[C@H](Cc1ccccc1)NC(=O)[C@H](C)NC(=O)[C@H](CCCCNC(=O)COCCOCCNC(=O)COCCOCCNC(=O)CC[C@H](NC(=O)CCCCCCCCCCCCCCCCCCC(=O)O)C(=O)O)NC(=O)[C@H](CCC(N)=O)NC(=O)[C@H](C)NC(=O)[C@@H](NC(=O)[C@H](CCCCN)NC(=O)[C@H](CC(=O)O)NC(=O)[C@H](CC(C)C)NC(=O)C(C)(C)NC(=O)[C@@H](NC(=O)[C@H](CO)NC(=O)[C@H](Cc1ccc(O)cc1)NC(=O)[C@H](CC(=O)O)NC(=O)[C@H](CO)NC(=O)[C@@H](NC(=O)[C@H](Cc1ccccc1)NC(=O)[C@@H](NC(=O)CNC(=O)[C@H](CCC(=O)O)NC(=O)CCCNC(=O)CNC(=O)Nc1cccc(Cl)c1)[C@@H](C)O)[C@@H](C)O)[C@@H](C)CC)[C@@H](C)CC)C(C)C)C(=O)N[C@@H](C)C(=O)NCC(=O)NCC(=O)N1CCC[C@H]1C(=O)N[C@@H](CO)C(=O)N[C@@H](CO)C(=O)NCC(=O)N[C@@H](C)C(=O)N1CCC[C@H]1C(=O)N1CCC[C@H]1C(=O)N1CCC[C@H]1C(=O)N[C@@H](CO)C(N)=O [Compound 273] ({NH(3-Cl-phenyl)-CO}-G[GABA]EGTFTSDYSI[Aib]LDKIAQK([AEEA-AEEA-γGlu-C20 diacid])AFVQWLIAGGPSSGAPPPS-NH2) | < 6.00 | < 6.00 | 8.00 to 9.00 | 106% | 8.00 to 9.00 | 99% | – | – | – | – | – | –
CC[C@H](C)[C@H](NC(=O)[C@H](CC(C)C)NC(=O)[C@H](Cc1c[nH]c2ccccc12)NC(=O)[C@H](CCC(N)=O)NC(=O)[C@@H](NC(=O)[C@H](Cc1ccccc1)NC(=O)[C@H](C)NC(=O)[C@H](CCCCNC(=O)COCCOCCNC(=O)COCCOCCNC(=O)CC[C@H](NC(=O)CCCCCCCCCCCCCCCCCCC(=O)O)C(=O)O)NC(=O)[C@H](CCC(N)=O)NC(=O)[C@H](C)NC(=O)[C@@H](NC(=O)[C@H](CCCCN)NC(=O)[C@H](CC(=O)O)NC(=O)[C@H](CC(C)C)NC(=O)C(C)(C)NC(=O)[C@@H](NC(=O)[C@H](CO)NC(=O)[C@H](Cc1ccc(O)cc1)NC(=O)[C@H](CC(=O)O)NC(=O)[C@H](CO)NC(=O)[C@@H](NC(=O)[C@H](Cc1ccccc1)NC(=O)[C@@H](NC(=O)CNC(=O)[C@H](CCC(=O)O)NC(=O)CCCNC(=O)CNC(=O)Nc1ccc(Cl)cc1)[C@@H](C)O)[C@@H](C)O)[C@@H](C)CC)[C@@H](C)CC)C(C)C)C(=O)N[C@@H](C)C(=O)NCC(=O)NCC(=O)N1CCC[C@H]1C(=O)N[C@@H](CO)C(=O)N[C@@H](CO)C(=O)NCC(=O)N[C@@H](C)C(=O)N1CCC[C@H]1C(=O)N1CCC[C@H]1C(=O)N1CCC[C@H]1C(=O)N[C@@H](CO)C(N)=O [Compound 270] ({NH(4-Cl-phenyl)-CO}-G[GABA]EGTFTSDYSI[Aib]LDKIAQK([AEEA-AEEA-γGlu-C20 diacid])AFVQWLIAGGPSSGAPPPS-NH2) | > 6.00 | < 6.00 | 7.00 to 8.00 | 91% | 8.00 to 9.00 | 104% | – | – | – | – | – | –
CC[C@H](C)[C@H](NC(=O)[C@H](CC(C)C)NC(=O)[C@H](Cc1c[nH]c2ccccc12)NC(=O)[C@H](CCC(N)=O)NC(=O)[C@@H](NC(=O)[C@H](Cc1ccccc1)NC(=O)[C@H](C)NC(=O)[C@H](CCCCNC(=O)COCCOCCNC(=O)COCCOCCNC(=O)CC[C@H](NC(=O)CCCCCCCCCCCCCCCCCCC(=O)O)C(=O)O)NC(=O)[C@H](CCC(N)=O)NC(=O)[C@H](C)NC(=O)[C@@H](NC(=O)[C@H](CCCCN)NC(=O)[C@H](CC(=O)O)NC(=O)[C@H](CC(C)C)NC(=O)C(C)(C)NC(=O)[C@@H](NC(=O)[C@H](CO)NC(=O)[C@H](Cc1ccc(O)cc1)NC(=O)[C@H](CC(=O)O)NC(=O)[C@H](CO)NC(=O)[C@@H](NC(=O)[C@H](Cc1ccccc1)NC(=O)[C@@H](NC(=O)CNC(=O)[C@H](CCC(=O)O)NC(=O)CCNC(=O)C(C)(C)c1cc(F)cc(C(N)=O)c1)[C@@H](C)O)[C@@H](C)O)[C@@H](C)CC)[C@@H](C)CC)C(C)C)C(=O)N[C@@H](C)C(=O)NCC(=O)NCC(=O)N1CCC[C@H]1C(=O)N[C@@H](CO)C(=O)N[C@@H](CO)C(=O)NCC(=O)N[C@@H](C)C(=O)N1CCC[C@H]1C(=O)N1CCC[C@H]1C(=O)N1CCC[C@H]1C(=O)N[C@@H](CO)C(N)=O [Compound 159] ({X56-βAla}-EGTFTSDYSI[Aib]LDKIAQK([AEEA-AEEA-γGlu-C20 diacid])AFVQWLIAGGPSSGAPPPS-NH2) | – | – | – | – | – | – | < 6.00 | < 6.00 | 8.00 to 9.00 | 100% | 7.00 to 8.00 | 104%
CC[C@H](C)[C@H](NC(=O)[C@H](CC(C)C)NC(=O)[C@H](Cc1c[nH]c2ccccc12)NC(=O)[C@H](CCC(N)=O)NC(=O)[C@@H](NC(=O)[C@H](Cc1ccccc1)NC(=O)[C@H](C)NC(=O)[C@H](CCCCNC(=O)COCCOCCNC(=O)COCCOCCNC(=O)CC[C@H](NC(=O)CCCCCCCCCCCCCCCCCCC(=O)O)C(=O)O)NC(=O)[C@H](CCC(N)=O)NC(=O)[C@H](C)NC(=O)[C@@H](NC(=O)[C@H](CCCCN)NC(=O)[C@H](CC(=O)O)NC(=O)[C@H](CC(C)C)NC(=O)C(C)(C)NC(=O)[C@@H](NC(=O)[C@H](CO)NC(=O)[C@H](Cc1ccc(O)cc1)NC(=O)[C@H](CC(=O)O)NC(=O)[C@H](CO)NC(=O)[C@@H](NC(=O)[C@H](Cc1ccccc1)NC(=O)[C@@H](NC(=O)CNC(=O)[C@@H](CC(=O)O)NC(=O)CCCNC(=O)C1(c2ccccc2)CNC(=O)C1)[C@@H](C)O)[C@@H](C)O)[C@@H](C)CC)[C@@H](C)CC)C(C)C)C(=O)N[C@@H](C)C(=O)NCC(=O)NCC(=O)N1CCC[C@H]1C(=O)N[C@@H](CO)C(=O)N[C@@H](CO)C(=O)NCC(=O)N[C@@H](C)C(=O)N1CCC[C@H]1C(=O)N1CCC[C@H]1C(=O)N1CCC[C@H]1C(=O)N[C@@H](CO)C(N)=O (stereo partly drawn) [Compound 121] ({X27-GABA}-[dD]GTFTSDYSI[Aib]LDKIAQK([AEEA-AEEA-γGlu-C20 diacid])AFVQWLIAGGPSSGAPPPS-NH2) | – | – | – | – | – | – | > 6.00 | < 6.00 | 7.00 to 8.00 | 72% | < 6.00 | 76%
CC[C@H](C)[C@H](NC(=O)[C@H](CC(C)C)NC(=O)[C@H](Cc1c[nH]c2ccccc12)NC(=O)[C@H](CCC(N)=O)NC(=O)[C@@H](NC(=O)[C@H](Cc1ccccc1)NC(=O)[C@H](C)NC(=O)[C@H](CCCCNC(=O)COCCOCCNC(=O)COCCOCCNC(=O)CC[C@H](NC(=O)CCCCCCCCCCCCCCCCCCC(=O)O)C(=O)O)NC(=O)[C@H](CCC(N)=O)NC(=O)[C@H](C)NC(=O)[C@@H](NC(=O)[C@H](CCCCN)NC(=O)[C@H](CC(=O)O)NC(=O)[C@H](CC(C)C)NC(=O)C(C)(C)NC(=O)[C@@H](NC(=O)[C@H](CO)NC(=O)[C@H](Cc1ccc(O)cc1)NC(=O)[C@H](CC(=O)O)NC(=O)[C@H](CO)NC(=O)[C@@H](NC(=O)[C@H](Cc1ccccc1)NC(=O)[C@@H](NC(=O)CNC(=O)[C@H](CCC(=O)O)NC(=O)[C@@H](C)CNC(=O)C(C)(C)c1cc(F)cc(C#N)c1)[C@@H](C)O)[C@@H](C)O)[C@@H](C)CC)[C@@H](C)CC)C(C)C)C(=O)N[C@@H](C)C(=O)NCC(=O)NCC(=O)N1CCC[C@H]1C(=O)N[C@@H](CO)C(=O)N[C@@H](CO)C(=O)NCC(=O)N[C@@H](C)C(=O)N1CCC[C@H]1C(=O)N1CCC[C@H]1C(=O)N1CCC[C@H]1C(=O)N[C@@H](CO)C(N)=O [Compound 224] ({Isobutyryl(2-(3-CN-5-F-Ph))}-[β2hAla(2S)]EGTFTSDYSI[Aib]LDKIAQK([AEEA-AEEA-γGlu-C20 diacid])AFVQWLIAGGPSSGAPPPS-NH2) | – | – | – | – | – | – | > 6.00 | < 6.00 | 9.00 to 10.00 | 102% | 8.00 to 9.00 | 103%
